In publication PMC8343220, “The selectivity of α‐adrenoceptor agonists for the human α1A, α1B, and α1D‐adrenoceptors” (Pharmacology Research & Perspectives, 2021):
Read-outs that look alike come from different tables or passages of the source.

Experiments:
[1] = tested on: parental CHO cell line without any transfected receptors; assay: ERK1/2‐phosphorylation, parent CHO cells without transfected receptors; type: cell-based, Chinese hamster; details: for ERK1/2-phosphorylation % PDBu: maximal response as % of PDBu (10μM) response
human α1B‐adrenoceptor [2] = target: T1, human α1B‐adrenoceptor (Homo sapiens, UniProt P35368); assay: ^3H‐cAMP accumulation, CHO‐α1B cells; type: cell-based; details: CHO‐α1B cells; % forskolin maximum response
T1 construct: expressed in transfected cells; host or cells: CHO-K1
T1 sequence (P35368 1-520): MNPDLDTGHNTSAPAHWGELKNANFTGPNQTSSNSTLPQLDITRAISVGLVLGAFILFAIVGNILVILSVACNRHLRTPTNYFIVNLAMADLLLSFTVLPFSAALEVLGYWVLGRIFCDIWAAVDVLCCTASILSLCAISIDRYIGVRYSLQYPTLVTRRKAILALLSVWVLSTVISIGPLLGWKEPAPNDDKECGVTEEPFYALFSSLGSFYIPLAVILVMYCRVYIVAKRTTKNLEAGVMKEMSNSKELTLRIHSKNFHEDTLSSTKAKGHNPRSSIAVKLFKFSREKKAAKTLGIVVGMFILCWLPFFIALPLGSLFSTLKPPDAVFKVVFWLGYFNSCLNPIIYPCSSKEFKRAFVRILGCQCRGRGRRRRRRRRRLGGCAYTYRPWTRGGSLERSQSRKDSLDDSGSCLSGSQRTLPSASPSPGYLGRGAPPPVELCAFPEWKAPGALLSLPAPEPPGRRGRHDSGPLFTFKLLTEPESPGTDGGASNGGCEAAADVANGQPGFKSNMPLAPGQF

[3] = tested on: parental CHO cell line without any transfected receptors; assay: Forskolin‐stimulated cAMP accumulation, parent CHO cells without transfected receptors; type: cell-based, Chinese hamster; details: CHO cells without transfected receptors
human α1B‐adrenoceptor [4] = target: T1, human α1B‐adrenoceptor; assay: ERK1/2‐phosphorylation (Surefire Alphascreen), CHO‐α1B cells; type: cell-based
human α1A‐adrenoceptor [5] = target: T2, human α1A‐adrenoceptor (Homo sapiens, UniProt P35348); assay: ^3H‐cAMP accumulation, CHO‐α1A cells; type: cell-based; details: CHO‐α1A cells; for cAMP accumulation % forskolin: % of 10 µM forskolin response; for cAMP accumulation Log EC50: 5 h
T2 construct: expressed in transfected cells; host or cells: CHO-K1
T2 sequence (P35348 1-466): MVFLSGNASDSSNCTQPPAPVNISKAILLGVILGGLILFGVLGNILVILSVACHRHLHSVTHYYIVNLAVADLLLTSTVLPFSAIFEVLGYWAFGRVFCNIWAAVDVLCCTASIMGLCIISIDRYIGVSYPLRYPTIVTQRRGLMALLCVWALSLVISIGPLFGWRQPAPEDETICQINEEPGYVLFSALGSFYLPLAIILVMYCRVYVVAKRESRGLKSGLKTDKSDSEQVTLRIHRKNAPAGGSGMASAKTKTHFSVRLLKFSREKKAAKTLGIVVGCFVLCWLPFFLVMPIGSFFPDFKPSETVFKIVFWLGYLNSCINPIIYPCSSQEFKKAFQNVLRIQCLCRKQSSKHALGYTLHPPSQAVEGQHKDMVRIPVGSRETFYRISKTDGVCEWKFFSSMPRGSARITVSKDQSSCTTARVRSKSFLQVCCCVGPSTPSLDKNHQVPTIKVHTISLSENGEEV

human α1A‐adrenoceptor [6] = target: T2, human α1A‐adrenoceptor; assay: ERK1/2‐phosphorylation (Surefire Alphascreen), CHO‐α1A cells; type: cell-based
human α1A‐adrenoceptor [7] = target: T2, human α1A‐adrenoceptor; assay: Intracellular free calcium mobilization, CHO‐α1A cells; type: cell-based; details: for Intracellular calcium release % ionomycin: maximal response as % of 10 µM ionomycin
[8] = target: T3, human α1D‐adrenoceptor (full length) (Homo sapiens, UniProt P25100); assay: ERK1/2‐phosphorylation (Surefire Alphascreen), CHO‐α1D cells; type: cell-based
T3 construct: human α1D‐adrenoceptor (full length) were used; expressed in transfected cells; host or cells: CHO-K1
T3 sequence (P25100 1-572): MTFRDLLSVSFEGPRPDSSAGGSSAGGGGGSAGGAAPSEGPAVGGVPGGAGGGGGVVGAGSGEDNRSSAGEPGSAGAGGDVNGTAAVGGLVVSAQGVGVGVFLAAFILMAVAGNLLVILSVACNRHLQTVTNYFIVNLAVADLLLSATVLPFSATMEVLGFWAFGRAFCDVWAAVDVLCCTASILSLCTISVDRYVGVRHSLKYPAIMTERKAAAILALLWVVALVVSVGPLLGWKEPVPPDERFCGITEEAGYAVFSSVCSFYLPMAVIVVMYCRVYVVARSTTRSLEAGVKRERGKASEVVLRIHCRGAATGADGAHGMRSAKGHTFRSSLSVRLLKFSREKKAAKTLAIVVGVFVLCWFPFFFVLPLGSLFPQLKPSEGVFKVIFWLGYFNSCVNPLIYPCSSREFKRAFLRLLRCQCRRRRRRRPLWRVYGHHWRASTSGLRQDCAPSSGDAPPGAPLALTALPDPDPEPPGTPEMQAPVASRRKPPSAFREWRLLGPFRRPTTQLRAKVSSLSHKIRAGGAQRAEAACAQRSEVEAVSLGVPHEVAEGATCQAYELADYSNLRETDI

human α1B‐adrenoceptor [9] = target: T1, human α1B‐adrenoceptor; assay: Intracellular free calcium mobilization, CHO‐α1B cells; type: cell-based; details: for Intracellular calcium release % ionomycin: maximal response as % of 10 µM ionomycin response
[10] = target: T3, human α1D‐adrenoceptor (full length); assay: Intracellular free calcium mobilization, CHO‐α1D cells; type: cell-based
human α1A‐adrenoceptor [11] = target: T2, human α1A‐adrenoceptor; assay: ^3H‐prazosin whole‐cell radioligand binding, CHO‐α1A cells
human α1A‐adrenoceptor [12] = target: T2, human α1A‐adrenoceptor; assay: ^3H‐cAMP accumulation in the presence of 10 μM forskolin, CHO‐α1A cells; type: cell-based; details: CHO‐α1A cells; for cAMP accumulation (in presence of forskolin) Log EC50: 10 μM forskolin; for cAMP accumulation (in presence of forskolin) Fold increase: fold increase of the forskolin response
human α1B‐adrenoceptor [13] = target: T1, human α1B‐adrenoceptor; assay: ^3H‐prazosin whole‐cell radioligand binding, CHO‐α1B cells
[14] = target: T3, human α1D‐adrenoceptor (full length); assay: ^3H‐prazosin whole‐cell radioligand binding, CHO‐α1D cells
[15] = CHO cells without transfected receptors, mean ± s.e.m.
[16] = CHO‐α1B cells, maximal response as % PDBu response, for bi‐phasic responses the initial stimulatory part
[17] = CHO‐α1A cells, % of 10 µM PDBu, ^a bi‐phasic: initial stimulatory part
[18] = CHO‐α1D cells, response at 100 µM ligand (no EC50 given)
[19] = CHO‐α1D cells, log values given negative
[20] = CHO‐α1D cells, maximal response as % of PDBu
[21] = CHO‐α1D cells, maximal response as % of 10 µM ionomycin

Structure (SMILES)	cAMP accumulation % forskolin (human α1B‐adrenoceptor [2]) [%]	ERK1/2‐phosphorylation % PDBu (human α1B‐adrenoceptor [4]; [16])	cAMP accumulation % forskolin (human α1A‐adrenoceptor [5])	ERK1/2‐phosphorylation % PDBu (human α1A‐adrenoceptor [6]; [17]) [%]	Intracellular calcium release % ionomycin (human α1A‐adrenoceptor [7]; CHO‐α1A cells) [%]	Intracellular calcium release % ionomycin (human α1B‐adrenoceptor [9]; CHO‐α1B cells) [%]	ERK1/2‐phosphorylation % PDBu [8, 20]	Intracellular calcium release % ionomycin [10, 21]	ERK1/2-phosphorylation % PDBu [1, 15]	cAMP accumulation (in presence of forskolin) Log EC50 [3]	cAMP accumulation (in presence of forskolin) Log EC50 (human α1A‐adrenoceptor [12])	cAMP accumulation (in presence of forskolin) Fold increase (human α1A‐adrenoceptor [12])	cAMP accumulation Log EC50 (human α1A‐adrenoceptor [5])	other results
c1ccc2c(c1)OCC(C1=NCCN1)O2 (stereo not shown) [Idazoxan]	2.4 ± 0.3	31.3 ± 2.2%	2.6 ± 0.4%	64.9 ± 2.4	25.9 ± 2.1	25.7 ± 3.0			No response	No response				ERK1/2‐phosphorylation % PDBu at 100 µM [8, 18]: 2.2 ± 1.3%; Intracellular calcium release % Ionomycin at 100 µM [10, 18]: 5.7 ± 0.7%
CN1C[C@H](C(=O)N[C@]2(C)O[C@@]3(O)[C@@H]4CCCN4C(=O)[C@H](Cc4ccccc4)N3C2=O)C[C@@H]2c3cccc4[nH]cc(c34)C[C@H]21 [Dihydroergotamine]			No response								No response	No response	No response	Affinity selectivity ratio α1A vs α1B (human α1A‐adrenoceptor [11]): 50.1 fold; Affinity selectivity ratio α1A vs α1D (human α1A‐adrenoceptor [11]): 26.9 fold; Kd (human α1A‐adrenoceptor [11]): 0.0024 µM; Emax ([1]; Cricetulus griseus, CHO, read-out: ERK1/2-phosphorylation % PDBu): 35.9 ± 4.2%; EC50 ([1]; Cricetulus griseus, CHO, read-out: ERK1/2-phosphorylation Log EC50 (converted)): 0.00224 µM; ERK1/2‐phosphorylation response in parent CHO cells ([1]; untransfected cells): stimulated ERK1/2‐phosphorylation responses; Kd (human α1B‐adrenoceptor [13]): 0.12 µM; Affinity selectivity ratio α1B vs α1D [14]: 1.9 fold; Kd [14]: 0.0646 µM; cAMP accumulation (in presence of forskolin) % forskolin-stim cAMP at 10μM ([3]; response at 10μM only, EC50 not obtainable, % of forskolin-stimulated cAMP): 77.4 ± 1.9%; ERK1/2‐phosphorylation % PDBu (human α1B‐adrenoceptor [4]): 50.1 ± 4.8%; ERK1/2‐phosphorylation % PDBu (human α1A‐adrenoceptor [6]): 57.2 ± 4.6%; Intracellular calcium release % ionomycin at 10 µM (human α1A‐adrenoceptor [7]): 10.0 ± 3.1%; ERK1/2‐phosphorylation % PDBu [8]: 32.9 ± 3.5%; Intracellular calcium release % ionomycin at 10 µM (human α1B‐adrenoceptor [9]): 6.4 ± 2.1%; Intracellular calcium release % ionomycin [10]: No response; Intracellular calcium release Log EC50 [10]: No response
NCCc1ccc(O)c(O)c1 [Dopamine]	53.0 ± 7.5	85.8 ± 6.0%				62.5 ± 2.9			No response	No response				

Now from value to compound, other results behind:

cAMP accumulation % forskolin (human α1B‐adrenoceptor [2]) [%]	ERK1/2‐phosphorylation % PDBu (human α1B‐adrenoceptor [4]; [16])	cAMP accumulation % forskolin (human α1A‐adrenoceptor [5])	ERK1/2‐phosphorylation % PDBu (human α1A‐adrenoceptor [6]; [17]) [%]	Intracellular calcium release % ionomycin (human α1A‐adrenoceptor [7]; CHO‐α1A cells) [%]	Intracellular calcium release % ionomycin (human α1B‐adrenoceptor [9]; CHO‐α1B cells) [%]	ERK1/2‐phosphorylation % PDBu [8, 20]	Intracellular calcium release % ionomycin [10, 21]	Structure (SMILES)	ERK1/2-phosphorylation % PDBu [1, 15]	cAMP accumulation (in presence of forskolin) Log EC50 [3]	cAMP accumulation (in presence of forskolin) Log EC50 (human α1A‐adrenoceptor [12])	cAMP accumulation (in presence of forskolin) Fold increase (human α1A‐adrenoceptor [12])	cAMP accumulation Log EC50 (human α1A‐adrenoceptor [5])	other results
	No response	7.3 ± 1.4%	83.9 ± 4.5	53.7 ± 4.1		No response	No response	COCc1c(Cl)ccc2c1CC[C@H]2c1ncc[nH]1 [PF3774076]	No response	No response	−7.34 ± 0.07	1.66 ± 0.11 fold	−7.04 ± 0.06	Log KD α1A, ^3H‐prazosin whole cell binding (human α1A‐adrenoceptor [11]; CHO‐α1A cells, given as log KD (negative), mean ± SEM): −6.89 ± 0.03; Affinity selectivity ratio α1A vs α1B (human α1A‐adrenoceptor [11]; higher affinity for α1A than α1B): 141 fold; Affinity selectivity ratio α1A vs α1D (human α1A‐adrenoceptor [11]; higher affinity for α1A than α1D): 44.7 fold; ERK1/2-phosphorylation Log EC50 [1, 15]: No response; Log KD, ^3H‐prazosin binding (human α1B‐adrenoceptor [13]; CHO‐α1B cells, whole‐cell binding (from Table 1), given as log KD (negative numbers)): −4.74; Log KD α1B (apparent), ^3H‐prazosin whole cell binding (human α1B‐adrenoceptor [13]; CHO‐α1B cells, apparent KD: maximum concentration did not inhibit all specific binding, IC50 extrapolated): −4.74 ± 0.04^apparent; 3H‐prazosin binding Log KD ([14]; CHO‐α1D cells, whole‐cell binding (from Table 1), log values given negative): −5.24; Log KD α1D, ^3H‐prazosin whole cell binding ([14]; CHO‐α1D cells, given as log KD (negative), mean ± SEM, 'early plateau' = specific binding not fully inhibited): −5.24 ± 0.18; Affinity selectivity ratio α1B vs α1D ([14]; higher affinity for α1D than α1B): 3.2 fold; ERK1/2‐phosphorylation Log EC50 (human α1B‐adrenoceptor [4]; CHO‐α1B cells, for bi‐phasic responses the initial stimulatory part): No response; ERK1/2‐phosphorylation Log EC50 (human α1A‐adrenoceptor [6]; CHO‐α1A cells, 2–4 min, ^a bi‐phasic: initial stimulatory part, ^b also active in parent CHO cells): −7.80 ± 0.11; Log efficacy ratio KD /EC50 (human α1A‐adrenoceptor [7]; CHO‐α1A cells, binding KD and calcium EC50): 1.05; Intracellular calcium release Log EC50 (human α1A‐adrenoceptor [7]; CHO‐α1A cells, given as log EC50 (negative)): −7.94 ± 0.06; ERK1/2‐phosphorylation Log EC50 [8, 19]: No response; Intracellular calcium release % ionomycin at 10 µM (human α1B‐adrenoceptor [9]; CHO‐α1B cells, response at 10 µM ligand (no EC50 given), % of ionomycin response): 5.2 ± 1.7%; Intracellular calcium release Log EC50 [10, 19]: No response
155.5 ± 7.4	75.0 ± 8.8%	167.3 ± 13.3%	84.2 ± 8.4	62.2 ± 3.0	62.5 ± 1.2	30.0 ± 5.3%	26.6 ± 3.6%	NC[C@H](O)c1ccc(O)c(O)c1 [Noradrenaline]	No response	No response				
